In patent publication US5648366A, “Substituted pyrrolidin-3-yl-alkyl-piperidines” (Merrell Pharmaceuticals Inc., priority 1995, dated 1997):
Where a name gives a salt, the structure may show the parent alone.

Columns and labels:
NK2 receptor [1] = target: T1, NK2 receptor (Bos taurus, UniProt P05363); experiment: Antagonism of NK2 receptor mediated (NKA-induced) phosphatidylinositol turnover in SKLKB82#3 cells; format: cell-based; settings: SKLKB82#3 cells, NKA; for NK-2 RECEPTOR -SLOPE: Schild analysis; for NK-2 RECEPTOR pA2: Schild analysis of 2-3 experiments, 95% confidence limits on next line
T1 construct: expressed in transfected cells; host or cells: SKLKB82#3 cells (murine B82 fibroblasts by own knowledge)
T1 sequence (P05363 1-384): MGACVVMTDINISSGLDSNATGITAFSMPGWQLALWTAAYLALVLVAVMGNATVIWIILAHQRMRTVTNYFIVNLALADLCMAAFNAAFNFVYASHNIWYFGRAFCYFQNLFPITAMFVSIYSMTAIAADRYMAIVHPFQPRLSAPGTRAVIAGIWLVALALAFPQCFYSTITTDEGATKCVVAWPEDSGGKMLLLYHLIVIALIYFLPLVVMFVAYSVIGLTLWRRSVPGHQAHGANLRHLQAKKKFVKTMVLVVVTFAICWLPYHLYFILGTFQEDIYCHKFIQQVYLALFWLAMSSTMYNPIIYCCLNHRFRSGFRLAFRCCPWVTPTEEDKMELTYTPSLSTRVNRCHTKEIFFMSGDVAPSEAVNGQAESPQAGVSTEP
Description: (§1) ANTAGONISM OF NK1 AND NK2 RECEPTOR MEDIATED PHOSPHATID[…]
(§2) Tachykinin-mediated inositol phosphate accumulation was measured in UC11 or SKLKB82#3 cells in the presence and absence of NK1 or NK2 receptor antagonists, respectively. Tissues were incubated in Krebs-Henseleit buffer at 37° C. with 95% O2 -5% CO2 gassing. Tissues were then incubated with fresh buffer containing 100 μCi of myo-[2-^3 H(N)] inositol at 37° C. for 60 min with gentle gassing. After washing twice in 5 ml room temperature buffer containing 10 mM LiCl, tissues were incubated for 30 min at room temperature with a buffer change at 15 min. Buffer was removed and Krebs-Henseleit buffer (containing 40 μg/ml bacitracin, 4 μg/ml each of leupeptin and chymostatin, 0.1% bovine serum albumin and 10 mM each of thiorphan and LiCl) added. After 15 min, SP was added to UC11 cells or NKA to SKLKB82#3 cells at various concentrations to start the reaction. After incubation for 60 min at room temperature the reaction was terminated by addition of 930 μl chloroform: methanol (1:2 by volume) to each tube, followed by 310 μl chloroform and 310 μl doubly distilled water. Samples were vortexed, centrifuged, and 0.9 ml of the aqueous (top) phase removed and added to 2 ml ddH2 O. The mixture was vortexed and loaded onto a 50% Bio-Rad AG 1-X8 (formate form, 100-200 mesh) exchange column (Bio-Rad Laboratories, Hercules, Calif.). The columns were washed, in order, with: 1) 10 ml doubly distilled water, 2) 5 ml of 5 mM disodium tetraborate/60 mM sodium formate, and 3) 5 ml of 1M ammonium formate/0.1M formic acid. The third elution was collected and 1 ml counted in 7 ml scintillation fluid. A 50 μl aliquot of the organic (bottom) phase was removed, dried in a scintillation vial and counted in 7 ml scintillation fluid.
(§3) The ratio of DPM in the aqueous phase aliquot (total inositol phosphates) to the DPM in the 50 μl organic phase aliquot (total [^3 H]inositol incorporated) was calculated for each sample. Data are expressed as a percent of agonist-induced accumulation of [^3 H]-inositol phosphates over basal levels. The ratios in the presence of test compound and/or standards were compared to the ratios for control samples (i.e. no stimulating agonist). Dose-response graphs were constructed and the abilities of the test compounds to inhibit tachykinin-induced phosphatidyinositol turnover determined with the aid of a computer program. […] Data is expressed as percent stimulation of total inositol phosphate accumulation over basal levels and normalized to the maximum response produced by SP. […] Schild analysis is performed using dose response curves (such as those presented in FIGS. 1a and 1b) to obtain a value indicative of the strength of a competitive antagonist and is expressed as the pA2, which is the negative logarithm of the molar concentration of antagonist which reduces the effect of a dose of agonist to one-half of that expected at the dose of agonist.

NK1 receptor = target: T2, NK1 receptor (Homo sapiens, UniProt P25103); experiment: Antagonism of NK1 receptor mediated (SP-induced) phosphatidylinositol turnover in UC11 cells; format: cell-based; settings: UC11 cells, SP; for NK-1 RECEPTOR -SLOPE: Schild analysis; for NK-1 RECEPTOR pA2: Schild analysis of 2-3 experiments, 95% confidence limits on next line
T2 construct: endogenous in cells; host or cells: UC11 cells
T2 sequence (P25103 whole entry): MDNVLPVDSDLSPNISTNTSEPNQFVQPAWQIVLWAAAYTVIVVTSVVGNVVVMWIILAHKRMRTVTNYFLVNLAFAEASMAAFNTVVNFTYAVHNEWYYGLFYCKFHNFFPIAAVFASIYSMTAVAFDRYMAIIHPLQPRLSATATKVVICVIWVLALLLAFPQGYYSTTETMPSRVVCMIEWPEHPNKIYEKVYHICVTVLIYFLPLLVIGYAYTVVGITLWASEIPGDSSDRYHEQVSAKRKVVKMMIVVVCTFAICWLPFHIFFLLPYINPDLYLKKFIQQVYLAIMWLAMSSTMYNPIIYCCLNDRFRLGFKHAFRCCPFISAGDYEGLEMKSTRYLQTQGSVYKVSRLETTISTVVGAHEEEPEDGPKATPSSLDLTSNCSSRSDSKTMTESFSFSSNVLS
Description: as §1, §2, §3

NK2 receptor [2] = experiment: Antagonism of NKA aerosol induced respiratory effects in conscious guinea pigs; format: in vivo, guinea pig; settings: 20 min prior to NKA aerosol (0.05%); for DYSPNEA ONSET: mean and SEM
Description: (§4) ANTAGONISM OF NKA AND CAPSAICIN INDUCED R[…] IN CONSCIOUS GUINEA PIGS
(§5) In vivo experiments were performed using male Duncan Hartley guinea pigs (250-350 g). Changes in conscious breathing patterns were monitored in four animals simultaneously using modified whole body plethysmography consisting of four small plexiglass boxes each connected to a reference box via Validyne DP 45-16 differential pressure transducers. The 4 boxes were equipped with an air supply line (also used for aerosol delivery) and an exhaust air line. Supply and exhaust lines were of the same length and narrow bore and arose from a common supply chamber and vented to a common exhaust chamber. This system was used to ensure that fluctuations in supply air and atmospheric pressure would remain in phase and be eliminated from the net signal by the differential pressure transducers. The analog pressure signals were digitalized via a Data Translation DT2821 A to D board. Data were collected at a rate of 100 samples/second/animal. Each cycle of pressure change was analyzed using the following parameters: rising and falling slope determined between minimum and maximum pressures, the ratio of rising over falling slope, and the magnitude of the change between initial trough pressure and peak cycle pressure. Using these values (and observing the animals) the pressure cycles were characterized into normal breaths, forced exhalations (apparent by abdominal heaving), significant respiratory events (SREs; usually coughs, less often sneezes or gasps which were characterized by transient, extremely large pressure increases which were distinguishable from noise) and movement/noise with a PCAT 286 running a System V UNIX operating system. Dyspnea was defined as a significant, sustained increase in plethysmograph pressure which was associated with an observable shift to labored breathing in the animal.
(§6) During the course of a typical experiment in which airway responsiveness to various bronchoconstricting agents was examined, aerosols were delivered for 19 min (0.33 ml/min) using a DeVilbiss Ultraneb 99 ultrasonic nebulizer and animals monitored during this time. Prior to nebulization, 1 min of resting breathing was collected to establish a baseline pressure. […] The vehicle for nebulization of all bronchoconstrictive agents was phosphate buffered saline (pH 7.4) which elicited no r[…] itself. Putative tachykinin antagonists were administered either (i.v.) 20 min prior to onset of aerosol exposure or orally 1 hour prior to onset (to guinea pigs after an overnight fast).
Table 6 illustrates the effects of the compounds of Example 3; Example 20A; and Example 5A on r[…] induced by NKA aerosol. […] These effects were dose dependent i.e. the higher the dose of compound, the greater attenuation of NKA-mediated effects.

NK1 and NK2 receptors = experiment: Antagonism of capsaicin aerosol induced respiratory effects in conscious guinea pigs; format: in vivo, guinea pig; settings: for SRE NUMBER (coughs/gasps): 19 min capsaicin exposure; for SRE NUMBER (coughs/gasps) / DYSPNEA ONSET / MAXIMUM PRESSURE INCREASE: mean and SEM; for DYSPNEA INCIDENCE / DYSPNEA ONSET / MAXIMUM PRESSURE INCREASE: capsaicin aerosol 0.001%; for antagonism of effects of capsaicin aerosol (in words): administered orally; for inhibition of endogenous tachykinins released by capsaicin aerosol (in words): guinea pig, in vivo
Description: as §4, §5, §6
Capsaicin aerosol is known to promote release of the tachykinins SP and NKA from sensory nerves in the airways of guinea pigs which may then act upon NK1 and NK2 receptors, respectively to elicit r[…]. The ability of the compounds of Example 3A; and Example 20A to attenuate capsaicin-induced r[…], shown in Table 7a, is inferred from their ability to reduce incidence of dyspnea, prolong the onset of the response and reduce the number of coughs/gasps which occur during aerosol exposure.

[3] = 25 mg/kg oral gavage 1 hr prior
[4] = 50 mg/kg oral gavage 1 hr prior
[5] = 100 mg/kg oral gavage 1 hr prior

| SMILES | NK-2 RECEPTOR -SLOPE (NK2 receptor [1]) | NK-1 RECEPTOR -SLOPE (NK1 receptor) | NK-2 RECEPTOR pA2 (NK2 receptor [1]) | NK-1 RECEPTOR pA2 (NK1 receptor) | SRE NUMBER (coughs/gasps) (NK1 and NK2 receptors; [3]) | DYSPNEA INCIDENCE (NK1 and NK2 receptors; [3]) | DYSPNEA ONSET (NK1 and NK2 receptors; [3]) | MAXIMUM PRESSURE INCREASE (NK1 and NK2 receptors; [3]) | SRE NUMBER (coughs/gasps) (NK1 and NK2 receptors; [4]) | DYSPNEA INCIDENCE (NK1 and NK2 receptors; [4]) | DYSPNEA ONSET (NK1 and NK2 receptors; [4]) | MAXIMUM PRESSURE INCREASE (NK1 and NK2 receptors; [4]) | antagonism of effects of capsaicin aerosol (in words) (NK1 and NK2 receptors) | inhibition of endogenous tachykinins released by capsaicin aerosol (in words) (NK1 and NK2 receptors) | further results |
| --- | --- | --- | --- | --- | --- | --- | --- | --- | --- | --- | --- | --- | --- | --- | --- |
| COc1cc(C(=O)N2CCC(CCN3CCC(C(N)=O)(c4ccccc4)CC3)(c3ccc(Cl)c(Cl)c3)C2)cc(OC)c1OC (single isomer, unassigned; (+)) [Example 20, (+)-1-[2-[3-(3,4-dichloro-phenyl)-1-(3,4,5-trimethoxy-benzoyl)-pyrrolidin-3-yl]-ethyl]-4-phenyl-piperidine-4-carboxylic acid amide] | 1.00 | 1.03 |  |  |  |  |  |  |  |  |  |  |  |  |  |
| COc1cccc(OC)c1C(=O)N1CCC(CCN2CCC(C(N)=O)(c3ccccc3)CC2)(c2ccc(Cl)c(Cl)c2)C1 (stereo not drawn) [Example 5A, 1-[2-[3-(3,4-dichloro-phenyl)-1-(2,6-dimethoxy-benzoyl)-pyrrolidin-3-yl]-ethyl]-4-phenyl-piperidine-4-carboxylic acid amide hydrochloride] | 1.11 | 1.17 | 7.35 | 7.32 |  |  |  |  |  |  |  |  |  |  | DYSPNEA INCIDENCE (NK2 receptor [2]; 5 mg/kg): 60%; DYSPNEA ONSET (NK2 receptor [2]; 5 mg/kg): 654 ± 37 s; DYSPNEA INCIDENCE (NK2 receptor [2]; 10 mg/kg): 54%; DYSPNEA ONSET (NK2 receptor [2]; 10 mg/kg): 608 ± 65 s |
| COc1cc(C(=O)N2CCC(CCN3CCC(C(N)=O)(c4ccccc4)CC3)(c3ccc(Cl)c(Cl)c3)C2)cc(OC)c1OC (racemic) [Example 3A, 1-[2-[3-(3,4-dichloro-phenyl)-1-(3,4,5-trimethoxy-benzoy1)-pyrrolidin-3-yl]-ethyl]-4-phenyl-piperidine-4-carboxylic acid amide hydrochloride] | 0.73 | 0.90 | 8.75 | 7.91 | 4.6 ± 1.0 | 80% | 424 ± 120 s | 0.7 ± 0.2 mmH2 O | 2.8 ± 0.8 | 70% | 434 ± 152 s | 0.4 ± 0.1 mmH2 O | antagonize the effects of capsaicin aerosol when administered orally | inhibit the endogenous tachykinins released by capsaicin aerosol | SRE NUMBER (coughs/gasps) (NK1 and NK2 receptors; 10 mg/kg intravenous): 8.50 ± 1.9; DYSPNEA INCIDENCE (NK1 and NK2 receptors; 10 mg/kg intravenous): 89%; DYSPNEA ONSET (NK1 and NK2 receptors; 10 mg/kg intravenous): 480 ± 80 s; MAXIMUM PRESSURE INCREASE (NK1 and NK2 receptors; 10 mg/kg intravenous): 0.83 ± 0.18 mmH2 O; SRE NUMBER (coughs/gasps) (NK1 and NK2 receptors; [5]): 2.1 ± 0.5; DYSPNEA INCIDENCE (NK1 and NK2 receptors; [5]): 50%; DYSPNEA ONSET (NK1 and NK2 receptors; [5]): 360 ± 120 s; MAXIMUM PRESSURE INCREASE (NK1 and NK2 receptors; [5]): 0.4 ± 0.1 mmH2 O |
| COc1cccc(OC)c1C(=O)N1CCC(CCN2CCC(C(N)=O)(c3ccccc3)CC2)(c2ccc(Cl)c(Cl)c2)C1 (stereo not drawn) [Example 5] |  |  |  |  | 4.4 ± 1.2 | 66.7% | 253 ± 47 s | 0.7 ± 0.1 mmH2 O | 4.9 ± 1.9 | 85.7% | 384 ± 85 s | 0.5 ± 0.1 mmH2 O | antagonize the effects of capsaicin aerosol when administered orally | inhibit the endogenous tachykinins released by capsaicin aerosol |  |
